Source: patent US11730730B2, “Cell-based screening and compounds that modulate GalNAc-transferases” (Carnegie Mellon University, priority 2018, dated 2023)
Read-outs that look alike come from different tables or passages of the source.

How the values were obtained:
[1] = test system: HEK cells
[2] = biological target: purified ppGalNAc-T2 (Homo sapiens, UniProt Q10471); settings: purified enzyme, in vitro glycosylation
Method: (§1) A second stage reaction (UDP-GLO™) then converted the accumulated UDP product to ATP and then, via luciferase, to light.
(§2) Secondary screen. Glycosylation assays using recombinant ppGalNAc-T2 and ppGalNAc-T3 were carried out using the UDP-GLO™ Glycosyltransferase assay kit (Promega, Madison, Wis., Cat #V6962), according to the manufacturer's recommendation. The reaction (25 μl) included 2.5 ng/μl purified enzyme, 25 μM UDP-GalNAc (Sigma-Aldrich, Cat #U5252), 12.5 μM EA2 peptide (AnaSpec, Mucin 10, AA153-165, […], Cat #AS-63841), 25 mM Tris-HCl (pH7.5) (Fisher Scientific, Cat #77-86-1), 5 mM MnCl2 (Fisher Scientific, Cat #M87-500), 2.5 mM CaCl2) (Fisher Scientific, Cat #C70-500) and 50 μM compound. The negative control was vehicle only (same reaction mixture with a matched percentage of DMSO instead of compound), whereas background was from the reaction carried out without enzyme and DMSO instead of compound. All reactions were incubated at 37° C. in a water bath for 30 min and then cooled to room temperature. Aliquots (5 μl) were then added to 384-well plate (Thermo Scientific, Waltham, Mass., Cat #164610) to which 5 μl of UDP Detection Reagent was also added. Duplicate measures were made for all reactions. After 1 h at room temperature the luminescent signals were determined using a Tecan Infinite M1000 (Tecan Group Ltd., Männedorf, Switzerland) with integration time set to 1000 msec. The background-subtracted average for each compound was expressed as a percentage of the negative control (taken as 100%). Compounds with ≥50% effect were considered direct modulators.
(§3) Titration assays. For the sensor assay, about 200,000 cells expressing either sensor were seeded into Greiner Bio-One 24-well plates (Sigma-Aldrich, Cat #662160). After 24 h, the cells were incubated for another 6 h in the presence of 0-50 μM compound. To release the cells the medium was replaced with 200 μl 5 mM EDTA/PBS containing 110 nM MG dye. After 5 min at 37° C., fluorescence measurements (20,000 cells/well) were carried out as described above. For the biochemical assay, the assay conditions were identical except for variations in the compound or substrate concentrations as indicated in the figure legends. Data analysis was completed using Prism (Graph Pad Prism Inc., SCR_002798).

[3] = biological target: purified ppGalNAc-T3 (Homo sapiens, UniProt Q14435); settings: for Vmax: percent of control without inhibitor
Method: as §1, §2, §3

[4] = test system: ANGPTL3; settings: media of HEK cells transfected with Myc-ANGPTL3, 6 h
Method: (§4) Immunoblotting. The FLAG-tagged FGF23, Myc-tagged ANGPTL3 with the T225G modification, and untagged ppGalNAc-T3 (cloned into PCDNA 3.0 using BamH1 sites) were transfected into HEK cells using the JetPEI transfection reagent (VWR International, Radnor, Pa., Cat #101-40N) according to the manufacturer's instructions. After 24 h, the medium was replaced with serum-free MEM containing the compound for 6 h. The medium and cells were then collected and, after trichloroacetic acid precipitation of the medium, analyzed by immunoblot using anti-FLAG antibody at 1:1000 or anti-Myc antibody at 1:2000 and then the peroxidase-coupled secondary antibodies. Emission was captured and quantified using a CHEMIDOC™ Touch Imaging System with Image Lab Software (BioRad, SCR_014210). For ppGalNAc-T3 determinations in different cell lines, cells were collected and lysed with 100 μl buffer (10 mM Tris-HCl (pH8.0), 1 mM EDTA (ACROS ORGANICS, Cat #446085000), 1% Triton X-100, 0.1% sodium deoxycholate (Fisher Scientific, Cat #BP349-100), 0.1% SDS (Fisher Scientific, Cat #BP166-500), 140 mM NaCl (Fisher Scientific, Cat #5271-3), 1 mM PMSF (Sigma-Aldrich, Cat #PMSF-RO). Then 15 μl of each lysate was analyzed by immunoblotting using the purchased anti-ppGalNAc-T3 and anti-α-tubulin antibodies.

[5] = test system: FGF23
Method: as §4

[6] = test system: MDA-MB231 cells; settings: 24 or 48 h
Method: (§5) Cell invasion assay. Breast cancer MDA-MB231 cells were grown in DMEM medium (Corning, N.Y., Cat #10-013-CV) with 10% FBS and 100 IU/ml penicillin-streptomycin at 37° C. and 5% CO2 and then plated at a density of 1.32×104 in 0.3 ml of DMEM medium without FBS into the upper chamber of a BIOBOAT™ insert fitted with a 8.0 μm PET membrane (Corning, N.Y., Cat #354578). For migration assays, the filter was uncoated. […] Medium containing 10% FBS (0.6 ml) was placed into the lower chamber as a chemo attractant. The compound (final concentration of 5 μM) or a matching amount of DMSO was added to both chambers. After 24 h or 48 h the cells were fixed with −20° C. methanol for 15 min and then stained with Trypan blue for 5 min. Cells on the upper surface were removed using cotton swabs. Cells present on the underside of the membrane were photographed using an EVOS FL Cell Imaging System (Invitrogen, CA) and the images were thresholded for presentation and counting using Image J (National Institutes of Health, Bethesda, Md., SCR_003070). The assays involving MCF7 cells were identical except that they were performed 24 h post transfection.

[7] = test system: MCF7 cells; settings: MCF7, 5 μM T3Inh-1, 24 h, Matrigel-coated filters
Method: as §5

[8] = test system: MDA-MB231 cells; settings: MDA-MB231, 5 μM T3Inh-1, 24 or 48 h
Method: Proliferation assay. […] After 24, 48 or 72 h, the cells were released using trypsin and counted twice using a hemocytometer for 3 independent trials.

[9] = test system: HeLa cells; settings: 24 h treatment, 10 or 20 μM
Method: Lectin staining. […] After staining, the cells were washed twice, lysed with 0.2% Triton X-100 (Fisher Scientific, Cat #BP151-100) for 15 min at 4° C., centrifuged at 14,000×g for 15 min at 4° C., and the supernatants were read in a Greiner Bio-One 96-well glass-bottom plate using a Tecan Infinite M1000 with excitation at 495 nm and emission from 510-550 nm. Three independent trials were carried out and the peak value (520 nm) was used for quantification.

[10] = biological target: purified lumenal domain of ppGalNAc-T3 (Homo sapiens, UniProt Q14435)
From the text: Tryptophan fluorescence quenching assay. […] The value at the peak of emission at 324 nm was used for the binding curve analysis by Prism.

[11] = test system: HeLa cells; settings: 6 h, 10 μM
[12] = biological target: purified ppGalNAc-T6 (Homo sapiens, UniProt Q8NCL4); settings: purified enzyme, in vitro glycosylation
Method: as §2, with “Aliquots (5 μl) were then added to 384-well plate (Thermo Scientific, Waltham, Mass., Cat #164610) to which 5 μl of UDP Detection Reagent was also added. Duplicate measures were made for all reactions.” left out, “Compounds with ≥50% effect were considered direct modulators.” left out
(§6) Titration assays. […] After 5 min at 37° C., fluorescence measurements (20,000 cells/well) were carried out as described above. […]

[13] = biological target: ppGalNAc-T3 (Homo sapiens, UniProt Q14435); settings: read-out: apparent IC50 of T3 sensor activation; HEK cells expressing T3 sensor, 6 h, 0-50 μM
Method: (§7) Primary screen. HEK cells stably expressing the T2 sensor (containing ANGPTL3 linker sequence with T225G modification) or the T3 sensor (containing FGF23-based linker) were cultured in MEM (Corning, N.Y., Cat #10-010-CV) with 10% fetal bovine serum (FBS, Atlanta Biologicals, Flowery Branch, Ga., Cat #5111150) and 100 IU/ml penicillin-streptomycin (Sigma-Aldrich, Cat #P4333) at 37° C., 5% CO2. Positive controls were cell lines expressing matched sensors with the glycosylation site mutated (Δglycan), specifically T225G/T226G and T178G for the T2 and T3 sensors, respectively. Cells (50,000/well) were seeded in flat bottom 96-well-plates (Corning, N.Y., Cat #3997) and grown for 24 h. Compounds (the diversity set from ChemBridge Corporation (Chicago, Ill.) and the approved oncology drugs set V and the diversity set II from the National Cancer Institute Developmental Therapeutics Program) were then added to achieve a 10 μM final concentration. […] The plates were then transferred to an Accuri™ C6 flow cytometer (BD Biosciences) where GFP and MG fluorescence was measured using 488 nm and 640 nm for 10,000 cells per well. […]
as §6

[14] = biological target: ppGalNAc-T2 (Homo sapiens, UniProt Q10471); settings: HEK cells expressing T2 sensor, 6 h, 0-50 μM
Method: as §7, §6

[15] = mice, 25 and 50 mg/kg intraperitoneal, 1 or 2 injections
Method: (§8) Animal analysis. Wild-type C57BL/6 six to eight week old mice were purchased from Charles River Laboratories International Inc. (Wilmington, Mass.). Protocols, handling, and care of the mice conformed to protocols approved by the Institutional Animal Care and Use Committee of Carnegie Mellon University (CMU IACUC protocol AS16-005). The compound was dissolved in DMSO at 25 and 50 mg/ml then further diluted with PEG400 (Hampton Research, CA, USA, HR2-603) to create 5 and 10 mg/ml stocks for injection. Control (vehicle only: 20% DMSO, 80% PEG400) and experimental (25 or 50 mg/kg compound) animals received either single or double (separated by 24 h) intraperitoneal injections and, 24 h after the last injection, a cardiac blood draw was carried out. The cleaved/intact FGF23 ratio was determined using ELISA kits from Immunotopics (Carlsbad, Va., USA, Cat #60-6800, Cat #60-6300) with cleaved equaling total minus intact.

[16] = test system: FGF23; settings: mice; for ratio of cleaved/intact FGF23 in the blood: 1 or 2 injections, blood 24 h after last
Method: as §8

## O=C(Nc1ccc(Nc2ccncc2)cc1)c1ccc(Nc2ccnc3ccccc23)cc1 [Compound T3Inh-1]
[1]; 0-50 μM, 24, 48, 72 h, cell counting
  HEK cell proliferation: did not affect
[1]; HEK cells, continuous exposure 24, 48, 72 h
  toxicity: no toxicity
[2]
  inhibition of ppGalNAc-T2: undetectable
[3]; 50 μM compound, versus ppGalNAc-T2
  inhibition of ppGalNAc-T3 in the secondary screen: strong and selective inhibitor
[3]; read-out: IC50 of inhibition of ppGalNAc-T3, purified enzyme, in vitro glycosylation
  IC50: 7 µM
[3]; substrate varied: Peptide (EA2)
  Ki: 9.9 µM
[3]; substrate varied: Peptide (EA2), 7.5 μM T3Inh-1
  Vmax: 82%
[3]; substrate varied: Peptide (EA2), 15 μM T3Inh-1
  Vmax: 36%
[3]; substrate varied: UDP-GalNAc
  Ki: 2.9 µM
[3]; substrate varied: UDP-GalNAc, 7.5 μM T3Inh-1
  Vmax: 71%
[3]; substrate varied: UDP-GalNAc, 15 μM T3Inh-1
  Vmax: 56%
[4]
  secreted intact ANGPTL3: remained high at all concentrations
[5]; cell extracts, 6 h, also with 100 μM chloroquine
  intact and cleaved FGF23 in cell lysates: no change
[5]; media of HEK cells co-expressing FGF23 and ppGalNAc-T3, 6 h
  half-max of increase in ratio of cleaved/intact FGF23: 14 µM
[5]; media, 6 h, increasing concentrations
  secreted intact FGF23: dose-dependent loss
[6]; 5 μM T3Inh-1, Matrigel-coated filters
  inhibition of invasion: 98%
[6]; 5 μM T3Inh-1, uncoated filters
  inhibition of migration: > 80%
[7]
  increase of invasion caused by ppGalNAc-T3 transfection: strongly blocked
[8]
  effect on cell proliferation: no discernable effect
[9]
  staining intensity by lectin Concanavalin A (ConA): did not affect
  staining intensity by lectin Sambucus Nigra (SNA): did not affect
  staining intensity by lectin Vicia Villosa (VVA): did not affect
  staining intensity by lectin Wheat germ agglutinin (WGA): did not affect
[10]; read-out: apparent Kd of direct binding, quenching at 324 nm
  Kd: 17 µM
[10]; stated in words
  affinity of binding to GalNAc-T3: low micromolar
[11]
  localization or expression level of ppGalNAc-T3, ppGalNAc-T2 or any other Golgi marker tested: no change
[12]
  activity against ppGalNAc-T6: lacked activity
[13]
  IC50: 12 µM
[14]
  activity towards the T2 sensor: little or no activity
[15]
  effects on animal health: no apparent ill effects
[16]; 25 mg/kg intraperitoneal
  ratio of cleaved/intact FGF23 in the blood: robust and statistically significant increase
[16]; 50 mg/kg intraperitoneal
  ratio of cleaved/intact FGF23 in the blood: robust and statistically significant increase
[16]; intraperitoneal injection
  increase of level of proteolyzed C-terminal FGF23 fragment: 8 fold
